In assay [1] the test system is pY705-STAT3 in Peripheral Blood Mononuclear Cells (PBMC). In words: MSD-pSTAT-PBMC Assay (pSTAT3, IL-6 stimulated). The assay is classed as cell-based, Human. As to conditions: compound 3 hrs, then 10 ng/mL IL-6 for 10 min. The source says:
Cryopreserved Peripheral Blood Mononuclear Cells (PBMC) are from AllCells. Recombinant Human IL-4 and IL-6 are from Peprotech. Mouse monoclonal anti-STAT3 antibody, rabbit monoclonal anti-pY705-STAT3 antibody, rabbit monoclonal Anti-pY641-STAT6 antibody, and lysis buffer are from Cell Signaling Technology (CST). Mouse monoclonal anti-STAT6 antibody is from BioLegend. Assay plates, blocker, and anti-rabbit secondary antibody are from Meso Scale Discovery (MSD).
Cryopreserved PBMCs were thawed out and allowed to recover overnight in IMDM+10% heat-inactivated FBS prior to plating 50,000 (STAT3) or 25,000 (STAT6) cells per well in 96-well U-bottom tissue culture plates. Cells were treated with compound for 3 hrs, then stimulated with 10 ng/mL IL-6 (STAT3) or 1 ng/mL IL-4 (STAT6) for 10 min. Cells were then spun down and washed with ice-cold PBS prior to lysing the cell pellet with 1× lysis buffer (CST) with 1×HALT protease and phosphatase inhibitor cocktail (Thermo). Lysates were transferred to and incubated overnight at 4° C. with shaking in QuickPlex 96-well high bind assay plates (MSD) pre-coated overnight with 30 μL per well of 0.6 μg/mL mouse monoclonal anti-STAT3 antibody (STAT3) or 2 μg/mL mouse monoclonal anti-STAT6 antibody (STAT6) in 1×PBS, and pre-blocked for 1 hour with 3% Blocker-A (MSD). Captured protein in the assay plates were then washed and probed with 25 μL per well of 0.25 μg/ml rabbit monoclonal anti-pY705-STAT3 antibody (STAT3) or […] rabbit monoclonal Anti-pY641-STAT6 antibody (STAT6) in 1% Blocker-A for 1 hour at room temperature with shaking, then washed and probed with 25 ul per well of 1 ug/ml Sulfo-TAG Labeled Goat Anti-Rabbit Antibody (MSD) in 1% Blocker-A for 1 hour at room temperature with shaking. Assay plates were then washed and 150 μL of 1× Read Buffer-T (MSD) was added to each well prior to reading on an SQ120 MSD Plate Reader. Assay signal from each sample was subtracted by the signal from unstimulated control wells and normalized to DMSO control wells. IC50 values were calculated using Graph Pad Prism Dose-Response Nonlinear Regression with variable slope. For both pSTAT3 and pSTAT6 A=≤100 nM; B=>100-1000 nM; C=>1000-3000 nM; and D=>3 μM.

For assay [2], the system named is pY641-STAT6 in Peripheral Blood Mononuclear Cells (PBMC). In words: MSD-pSTAT-PBMC Assay (pSTAT6, IL-4 stimulated). In kind it is cell-based, Human. As to conditions: compound 3 hrs, then 1 ng/mL IL-4 for 10 min. Put shortly: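 Phospho-STAT readout used MSD electrochemiluminescence with total STAT3 or STAT6 capture in lysates of cryopreserved human PBMCs. Cells had 3 h compound exposure before a 10 min cytokine pulse: IL-6 10 ng/mL for pSTAT3, IL-4 1 ng/mL for pSTAT6. IC50 came from background-subtracted, DMSO-normalised signal, with categories A≤100 nM up to D>3 μM.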

As to `COC(=O)[C@@H]1CCCN1C(=O)OCOP(=O)(OCOC(=O)N1CCC[C@H]1C(=O)OC)C(F)(F)c1ccc2sc(C(=O)N[C@H]3CN(C(C)=O)CC[C@H]4CC[C@@H](C(=O)N(C)c5ccccc5)N4C3=O)cc2c1` [Compound 288, O′1,O1-(((((2-(((5S, 8S,10aR)-3-acetyl-8-(methyl (phenyl)carbamoyl)-6-oxodecahydro-pyrrolo[1,2-a][1,5]diazocin-5-yl)carbamoyl)benzo[b]thiophen-5-yl)difluoro-methyl)phos-phoryl)bis(oxy))bis (methylene)) 2,2′-dimethyl (2S,2′S)-bis (pyrrolidine-1,2-dicarboxylate)], the IC50 in assay [1] (Homo sapiens) and in assay [2] (Homo sapiens) was above 3 µM in each case.

In the case of `CC(=O)N1CC[C@H]2CC[C@@H](C(=O)Nc3ccc4nnccc4c3)N2C(=O)[C@@H](NC(=O)c2cc3cc(C(F)(F)P(=O)(OCOC(=O)C(C)(C)C)OCOC(=O)C(C)(C)C)ccc3s2)C1` [Compound 294, ((((2-(((5S,8S, 10aR)-3-acetyl-8-(cinnolin-6-ylcarbamoyl)-6-oxodecahydro-pyrrolo[1,2-a][1,5]diazocin-5-yl)carbamoyl)benzo[b]thiophen-5-yl)difluoro-methyl)phos-phoryl)bis(oxy)) bis(methylene) bis(2,2-dimethylpro-panoate)], the IC50 in assay [1] (Homo sapiens) and in assay [2] (Homo sapiens) was 0.1 to 1 µM in each case.

For the molecule `CCOP(=O)(OCC)C(F)(F)c1ccc2sc(C(=O)N[C@H]3CN(C(C)=O)CC[C@H]4CC[C@@H](C(=O)N(C)c5ccccc5)N4C3=O)cc2c1` [Compound 317, diethyl ((2-(((5S,8S, 10aR)-3-acetyl-8-(methyl (phenyl)carbamoyl)-6-oxodecahydro-pyrrolo[1,2-a][1,5]diazocin-5-yl)carbamoyl)benzo[b]thiophen-5-yl)difluoro-methyl)phos-phonate], the IC50 in assay [1] (Homo sapiens) and in assay [2] (Homo sapiens) was above 3 µM throughout.

Turning to `CC(=O)N1CC[C@H]2CC[C@@H](C(=O)N(C)c3ccc(OCCN(C)C)cc3)N2C(=O)[C@@H](NC(=O)c2cc3cc(C(F)(F)P(=O)(OCOC(=O)C(C)(C)C)OCOC(=O)C(C)(C)C)ccc3s2)C1` [Compound 327, ((((2-(((5S,8S, 10aR)-3-acetyl-8-((4-(2-(dimethyl-amino)ethoxy)phenyl) (methyl)carbamoyl)-6-oxodecahydro-pyrrolo[1,2-a][1,5]diazocin-5-yl)carbamoyl)benzo[b]thiophen-5-yl)difluoro-methyl)phos-phoryl)bis(oxy)) bis(methylene) bis(2,2-dimethylpro-panoate)], the IC50 in assay [1] (Homo sapiens) and in assay [2] (Homo sapiens) was above 3 µM each time.

On to `CC(=O)N1CC[C@H]2CC[C@@H](C(=O)Nc3ccc(-c4ccccc4)cc3)N2C(=O)[C@@H](NC(=O)/C=C/c2ccc(C(F)(F)P(=O)(OCCSC(=O)CC(C)C)OCCSC(=O)CC(C)C)cc2)C1` [Compound 325, S,S′-(((((4-((E)-3-(((5S,8S, 10aR)-8-([1,1′-biphenyl]-4-ylcarbamoyl)-3-acetyl-6-oxodecahydro-pyrrolo[1,2-a][1,5]diazocin-5-yl)amino)-3-oxoprop-1-en-1-yl)phenyl)difluoro-methyl)phosphoryl)bis(oxy))bis (ethane-2,1-diyl)) bis(3-methylbutane-thioate)], for which the IC50 in assay [1] (Homo sapiens) and in assay [2] (Homo sapiens) was above 3 µM throughout.

`CCN1CC[C@H]2CC[C@@H](C(=O)N3CC(C(=O)N4CCOCC4)C3)N2C(=O)[C@@H](NC(=O)c2cc3cc(C(F)(F)P(=O)(OCOC(=O)C(C)(C)C)OCOC(=O)C(C)(C)C)ccc3s2)C1` [Compound 353, ((((2-(((5S,8S,10aR)-3-ethyl-8-(3-(morpholine-4-carbonyl)azetidine-1-carbonyl)-6-oxodecahydropyrrolo[1,2-a][1,5]diazocin-5-yl)carbamoyl)benzo[b]thiophen-5-yl)difluoromethyl)phosphoryl)bis(oxy)) bis(methylene) bis(2,2-dimethylpropanoate)]: the IC50 in assay [1] (Homo sapiens) was at most 0.1 µM; in assay [2] (Homo sapiens) it was above 3 µM.

As to `CC(=O)N1CC[C@H]2CC[C@@H](C(=O)N(C)c3ccccc3)N2C(=O)[C@@H](NC(=O)c2cc3cc(C(F)(F)P(=O)(OCCSC(=O)C(C)(C)C)Oc4ccccc4)ccc3s2)C1` (stereo partly drawn) [Compound 289, S-(2-((((2-(((5S,8S, 10aR)-3-acetyl-8-(methyl (phenyl)carbamoyl)-6-oxodecahydro-pyrrolo[1,2-a][1,5]diazocin-5-yl)carbamoyl)benzo[b]thiophen-5-yl)difluoro-methyl) (phenoxy)phosphoryl)oxy)ethyl)2,2-dimethylpro-panethioate], the IC50 in assay [1] (Homo sapiens) and in assay [2] (Homo sapiens) was above 3 µM in each case.

As to `CCCC(=O)SCCOP(=O)(OCCSC(=O)CCC)C(F)(F)c1ccc2sc(C(=O)N[C@H]3CN(C(C)=O)CC[C@H]4CC[C@@H](C(=O)N(C)c5ccccc5)N4C3=O)cc2c1` [Compound 280, S,S′-(((((2-(((5S,8S, 10aR)-3-acetyl-8-(methyl (phenyl)carbamoyl)-6-oxodecahydro-pyrrolo[1,2-a][1,5]diazocin-5-yl)carbamoyl)benzo[b]thiophen-5-yl)difluoro-methyl)phos-phoryl)bis (oxy))bis (ethane-2,1-diyl))di-butanethioate], the half-maximal inhibitory concentration (IC50) was in the range of 1 to 3 µM in assay [1] (Homo sapiens) and 0.1 to 1 µM in assay [2] (Homo sapiens).

Regarding `CCCC(=O)SCCOP(=O)(OCCSC(=O)CCC)C(F)(F)c1ccc2ccc(C(=O)N[C@H]3CN(C(C)=O)CC[C@H]4CC[C@@H](C(=O)N5CC(c6cc[nH]c(=O)c6)CC56CC6)N4C3=O)cc2c1` (stereo partly drawn) [Compound 332, S,S′-(((((7-(((5S,8S,10aR)-3-acetyl-6-oxo-8-(6-(2-oxo-1,2-dihydropyridin-4-yl)-4-azaspiro[2.4]heptane-4-carbonyl)decahydropyrrolo[1,2-a][1,5]diazocin-5-yl)carbamoyl)naphthalen-2-yl)difluoromethyl)phosphoryl)bis(oxy))bis(ethane-2,1-diyl))dibutanethioate], the figures for the IC50 in assay [1] (Homo sapiens) and in assay [2] (Homo sapiens) were above 3 µM and at most 0.1 µM, respectively.

Consider `CC(=O)N1CC[C@H]2CC[C@@H](C(=O)N(C)c3ccc4nnccc4c3)N2C(=O)[C@@H](NC(=O)c2cc3cc(C(F)(F)P(=O)(OCOC(=O)C(C)(C)C)OCOC(=O)C(C)(C)C)ccc3s2)C1` [Compound 290, ((((2-(((5S,8S, 10aR)-3-acetyl-8-(cinnolin-6-yl(methyl)carbamoyl)-6-oxodecahydro-pyrrolo[1,2-a][1,5]diazocin-5-yl)carbamoyl)benzo[b]thiophen-5-yl)difluoro-methyl)phos-phoryl)bis(oxy)) bis(methylene) bis(2,2-dimethylpro-panoate)], for which the IC50 in assay [1] (Homo sapiens) fell in the range of 1 to 3 µM; in assay [2] (Homo sapiens), 0.1 to 1 µM.

As to `CC(=O)N1CCC2CCC(C(=O)N3CC(c4ccccc4)CC34CC4)N2C(=O)C(NC(=O)c2ccc3ccc(C(F)(F)P(=O)(OCCSC(=O)CC(C)C)OCCSC(=O)CC(C)C)cc3c2)C1` [Compound 1, S,S′-(((((7-(((5S,8S,10aR)-3-acetyl-6-oxo-8-(6-phenyl-4-azaspiro[2.4]heptane-4-carbonyl)decahydropyrrolo[1,2-a][1,5]diazocin-5-yl)carbamoyl)naphthalen-2-yl)difluoromethyl)phosphoryl)bis(oxy))bis(ethane-2,1-diyl)) bis(3-methylbutanethioate)], the IC50 in assay [1] is above 3 µM; in assay [2], 0.1 to 1 µM.

As for `CC(C)(C)C(=O)SCCOP(=O)(OCCSC(=O)C(C)(C)C)C(F)(F)c1ccc2ccc(C(=O)N[C@H]3CN(CC(F)F)CC[C@H]4CC[C@@H](C(=O)N5CC[C@H](c6ccccc6)[C@@H](C#N)C5)N4C3=O)cc2c1` (relative stereo) [Compound 340, S,S′-(((((7-(((5S,8S,10aR)-8-((rel-trans)-3-cyano-4-phenylpiperidine-1-carbonyl)-3-(2,2-difluoroethyl)-6-oxodecahydropyrrolo[1,2-a][1,5]diazocin-5-yl)carbamoyl)naphthalen-2-yl)difluoromethyl)phosphoryl)bis(oxy))bis (ethane-2,1-diyl))bis(2,2-dimethylpropanethioate)], the IC50 in assay [1] (Homo sapiens) and in assay [2] (Homo sapiens) was above 3 µM in each case.

The record behind these values is patent US20250179103A1, “6-OXODECAHYDROPYRROLO[1,2-A][1,5]DIAZOCINE AND 6-OXODECAHYDRO-4H-PYRROLO[2,1-D][1,5]THIAZOCINE DERIVATIVES AS STAT3 AND STAT6 MODULATORS FOR THE TREATMENT OF CANCER AND INFLAMMATORY CONDITIONS” (Recludix Pharma, Inc., priority 2022, published 2025).
